# Measurements published in patent US20100120690A1, “Polypeptides Having Antimicrobial Activity and Polynucleotides Encoding Same” (Novozymes Adenium Biotech A/S, priority 2005, published 2010).
# Tested on: Staphylococcus aureus, ATCC 29213
# Assay: MIC, NCCLS/CLSI guidelines (Example 5), strain A
# Assay type: cell-based
# Conditions: relative to wildtype Plectasin; average of two independent experiments
# In short: (§1)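 MICs of purified plectasin peptides are measured according to NCCLS/CLSI guidance. Each value averages duplicate independent experiments and is given as a category relative to wild-type: 0 above 100%, 1 80-100%, 2 50-80%, 3 below 50%.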
row,Substance,"Relative MIC, strain A"
1,GFGCNGPWDEDDKQCHNHCKSIKGYKGGYCAKGGFVCRCY [M13K + K38R],1 (80-100% of Plectasin wildtype MIC)
2,GFGCNGPWDEDDMQCHYHCKSIKGYKGGYCAKGGFVCKCY [Mutation N17Y],1 (80-100% of Plectasin wildtype MIC)
3,GFGCNGPWDEDDMRCHNHCKSIKGYKGGYCAKGGFVCKCY [Mutation Q14R],2 (50-80% of Plectasin wildtype MIC)
4,Q14K + K26R: variant of Plectasin (SEQ ID NO: 1) (GFGCNGPWDEDDMKCHNHCKSIKGYRGGYCAKGGFVCKCY),3 (<50% of Plectasin wildtype MIC)

# Tested on: Staphylococcus aureus, ATCC 29737
# Assay: MIC, NCCLS/CLSI guidelines (Example 5), strain C
# Assay type: cell-based
# Conditions: relative to wildtype Plectasin; average of two independent experiments
# In short: as §1
row,Substance,"Relative MIC, strain C"
1,GFGCNGPWDEDDKQCHNHCKSIKGYKGGYCAKGGFVCRCY [M13K + K38R],3 (<50% of Plectasin wildtype MIC)
2,GFGCNGPWDEDDMQCHYHCKSIKGYKGGYCAKGGFVCKCY [Mutation N17Y],3 (<50% of Plectasin wildtype MIC)
3,GFGCNGPWDEDDMRCHNHCKSIKGYKGGYCAKGGFVCKCY [Mutation Q14R],3 (<50% of Plectasin wildtype MIC)
4,Q14K + K26R: variant of Plectasin (SEQ ID NO: 1) (GFGCNGPWDEDDMKCHNHCKSIKGYRGGYCAKGGFVCKCY),3 (<50% of Plectasin wildtype MIC)

# Tested on: panel of 6 different strains of Staphylococcus aureus
# Assay: Average MIC, NCCLS/CLSI guidelines using caMHB (Example 6)
# Assay type: cell-based
# Conditions: average over 6 S. aureus strains, duplicate; MIC above 32 counted as 64; read after 18-24 hours at 37° C.
# In short: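 Six Staphylococcus aureus strains, MSSA and MRSA, were exposed in duplicate to peptide dilutions from 32 down to 0.03 microgram/mL in caMHB following CLSI guidance. Growth was scored after 18-24 h incubation at 37° C. The tabulated value is the mean MIC, with 64 used for any MIC >32 micrograms/mL.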
row,Substance,Average MIC
1,GFGCNGPWDEDDKQCHNHCKSIKGYKGGYCAKGGFVCKCYR [M13K + Y40YR],12 micrograms/mL
2,GFGCNGPWDEDDKQCHNHCKSIKGYKGGYCAKGGFVCRCY [M13K + K38R],6 micrograms/mL
3,GFGCNGPWDEDDKQCHNHCKSIKGYRGGYCAKGGFVCKCY [M13K + K26R],10 micrograms/mL
4,GFGCNGPWDEDDMQCHYHCKSIKGYKGGYCAKGGFVCKCY [Mutation N17Y],6 micrograms/mL
5,GFGCNGPWDEDDMRCHNHCKSIKGYKGGYCAKGGFVCKCY [Mutation Q14R],5 micrograms/mL
6,Q14K + K26R: variant of Plectasin (SEQ ID NO: 1) (GFGCNGPWDEDDMKCHNHCKSIKGYRGGYCAKGGFVCKCY),6 micrograms/mL

# Tested on: B. subtilis
# Assay: Minimal Inhibitory Concentration, NCCLS guidelines (Example 4)
# Assay type: cell-based, Bacillus subtilis
# Conditions: purified peptide
# Protocol: (§2) The Minimal Inhibitory Concentration (MIC, micrograms/mL) was determined to test for their antimicrobial activity following the NCCLS guidelines (Clinical and Laboratory Standards Institute; formerly known as National Committee for Clinical and Laboratory Standards).
row,Substance,MIC against B. subtilis
1,GFGCNGPWDEDDKQCHNHCKSIKGYKGGYCAKGGFVCKCYR [M13K + Y40YR],0.25 micrograms/mL
2,Q14K + K26R: variant of Plectasin (SEQ ID NO: 1) (GFGCNGPWDEDDMKCHNHCKSIKGYRGGYCAKGGFVCKCY),0.13 micrograms/mL

# Tested on: Staphylococcus aureus, ATCC 25923
# Assay: MIC, NCCLS/CLSI guidelines (Example 5), strain B
# Assay type: cell-based
# Conditions: relative to wildtype Plectasin; average of two independent experiments
# In short: as §1
row,Substance,"Relative MIC, strain B"
1,GFGCNGPWDEDDKQCHNHCKSIKGYKGGYCAKGGFVCRCY [M13K + K38R],3 (<50% of Plectasin wildtype MIC)
2,GFGCNGPWDEDDMQCHYHCKSIKGYKGGYCAKGGFVCKCY [Mutation N17Y],3 (<50% of Plectasin wildtype MIC)
3,GFGCNGPWDEDDMRCHNHCKSIKGYKGGYCAKGGFVCKCY [Mutation Q14R],3 (<50% of Plectasin wildtype MIC)
4,Q14K + K26R: variant of Plectasin (SEQ ID NO: 1) (GFGCNGPWDEDDMKCHNHCKSIKGYRGGYCAKGGFVCKCY),2 (50-80% of Plectasin wildtype MIC)

# Tested on: M. luteus
# Assay: Minimal Inhibitory Concentration, NCCLS guidelines (Example 4)
# Assay type: cell-based, Micrococcus luteus
# Conditions: purified peptide
# Protocol: as §2
row,Substance,MIC against M. luteus
1,GFGCNGPWDEDDKQCHNHCKSIKGYKGGYCAKGGFVCKCYR [M13K + Y40YR],2 micrograms/mL
2,Q14K + K26R: variant of Plectasin (SEQ ID NO: 1) (GFGCNGPWDEDDMKCHNHCKSIKGYRGGYCAKGGFVCKCY),1 micrograms/mL

# Tested on: Staphylococcus aureus, MRSA ST5 (2001)
# Assay: MIC, NCCLS/CLSI guidelines (Example 5), strain D
# Assay type: cell-based
# Conditions: relative to wildtype Plectasin; average of two independent experiments
# In short: (§3)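 Recombinant plectasin variants, expressed and purified; MIC per NCCLS/CLSI; n=2 independent expts, averaged; reported as category vs wild-type MIC (0 >100%, 1 80-100%, 2 50-80%, 3 <50%).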
row,Substance,"Relative MIC, strain D"
1,GFGCNGPWDEDDKQCHNHCKSIKGYKGGYCAKGGFVCRCY [M13K + K38R],2 (50-80% of Plectasin wildtype MIC)
2,GFGCNGPWDEDDMQCHYHCKSIKGYKGGYCAKGGFVCKCY [Mutation N17Y],2 (50-80% of Plectasin wildtype MIC)
3,GFGCNGPWDEDDMRCHNHCKSIKGYKGGYCAKGGFVCKCY [Mutation Q14R],3 (<50% of Plectasin wildtype MIC)
4,Q14K + K26R: variant of Plectasin (SEQ ID NO: 1) (GFGCNGPWDEDDMKCHNHCKSIKGYRGGYCAKGGFVCKCY),3 (<50% of Plectasin wildtype MIC)

# Tested on: S. aureus
# Assay: Minimal Inhibitory Concentration, NCCLS guidelines (Example 4)
# Assay type: cell-based, Staphylococcus aureus
# Conditions: purified peptide
# Protocol: as §2
row,Substance,MIC against S. aureus
1,GFGCNGPWDEDDKQCHNHCKSIKGYKGGYCAKGGFVCKCYR [M13K + Y40YR],2 micrograms/mL
2,Q14K + K26R: variant of Plectasin (SEQ ID NO: 1) (GFGCNGPWDEDDMKCHNHCKSIKGYRGGYCAKGGFVCKCY),2 micrograms/mL

# Tested on: Staphylococcus aureus, MRSA ST80 (2003)
# Assay: MIC, NCCLS/CLSI guidelines (Example 5), strain E
# Assay type: cell-based
# Conditions: relative to wildtype Plectasin; average of two independent experiments
# In short: as §3
row,Substance,"Relative MIC, strain E"
1,GFGCNGPWDEDDKQCHNHCKSIKGYKGGYCAKGGFVCRCY [M13K + K38R],3 (<50% of Plectasin wildtype MIC)
2,GFGCNGPWDEDDMQCHYHCKSIKGYKGGYCAKGGFVCKCY [Mutation N17Y],2 (50-80% of Plectasin wildtype MIC)
3,GFGCNGPWDEDDMRCHNHCKSIKGYKGGYCAKGGFVCKCY [Mutation Q14R],0 (>100% of Plectasin wildtype MIC)
4,Q14K + K26R: variant of Plectasin (SEQ ID NO: 1) (GFGCNGPWDEDDMKCHNHCKSIKGYRGGYCAKGGFVCKCY),3 (<50% of Plectasin wildtype MIC)

# Tested on: Staphylococcus carnosus
# Assay: TAPS (Trans Acting Peptide System) assay, radial diffusion read-out
# Assay type: cell-based
# Design: key: classified as 4>3>2>1; whereas 4 is better than 1; classified as 4>3>2>1; classified as 4>3>2>1; wildtype activity corresponds to 1
# Conditions: peptide expressed in E. coli
# Protocol: A range of antimicrobial polypeptides, which are variants of SEQ ID NO: 1, were tested in the TAPS assay. TAPS may be used to identify new or improved genes encoding peptides that can kill or inhibit the growth of target cells (see PCT application WO 2004/033715). The TAPS assay, an acronym for Trans Acting Peptide System, is based on having a sensitive host producing a peptide followed by screening for its activity in trans against an indicator strain. The advantage of this system is based on that the antimicrobial peptide is expressed in the Gram-negative bacterium E. coli and its antimicrobial activity can be monitored on different microbes including Gram-negatives, positives or fungi. Additionally, TAPS offers the possibility to produce correctly folded AMPs containing disulfide bonds in the host cells, thereby retaining their antimicrobial activities.
# The TAPS approach requires first, that expression of the peptide is under control of an inducible promoter with tight regulation, because the host cells are sensitive to the peptide when producing it. Secondly, the produced peptide has to be released to the media so that it can interact with the target organism.
# The TAPS screening can be carried out either in solid or liquid media. On solid media, a plasmid library is initially introduced into E. coli host cells. […] In the next step, the filter containing the colonies is transferred to LB growth medium containing inducer (0.1% arabinose) to permit peptide synthesis. Subsequently, the target strain, for example S. carnosus, is overlaid onto the plate and allowed to grow for 12-16 hours at 37° C. Finally, visual inspection of the host cells capable of reducing the proliferation of the target cells is performed and the nucleotide sequence encoding for the antimicrobial peptide is recovered from the host cells. DNA sequence analysis of the variants is obtained to elucidate the nature of the peptide.
# As mentioned above, the TAPS screening can also be performed using liquid medium. This procedure requires the use of robotics to analyze large number of clones. In this system, the host E. coli origami cells are transformed with the plasmid library and plated out on LB medium+0.2% glucose+ampicillin (200 mg/L). Independent colonies are then inoculated into 96 or 384-well plates containing 200 micro-L of TB medium+ampicillin (200 mg/L) and cultured overnight at 37° C. These cultures are then replicated robotically and grown to exponential phase until inducer (0.1% arabinose) is added to trigger peptide synthesis. The next step consists in hydrolyzing the cells such that the peptide is released to the media by hot acid hydrolysis. This treatment consists on adding 1 M sodium Phosphate buffer pH 2.3 to obtain a final pH approximately of 2.3 and incubating the cultures overnight at 80° C. Next day, a 25 micro-L aliquot of the hydrolyzed cultures is used to perform an activity test against the desired target organisms. The activity test performed was a Radial Diffusion Assay (RDA) where an aliquot of the hydrolyzed cultures was added to the agarose media inoculated with the target strain, S. carnosus. […] Measurements of the diameter of the clearing zones were performed to quantify the potency of the antimicrobial activity of the peptides.
# The antimicrobial activity (against Staphylococcus carnosus) of the tested plectasin variants, which was measured using the TAPS assay, is shown in table 3. The antimicrobial activity corresponds to the clearing zone size and has been classified as 4>3>2>1; whereas 4 is better than 1, and wildtype activity corresponds to 1.
row,Substance,"Activity (antimicrobial activity, clearing zone size)"
1,GFGCNGPWDEDDKQCHNHCKSIKGYKGGYCAKGGFVCKCYR [M13K + Y40YR],4
2,GFGCNGPWDEDDKQCHNHCKSIKGYKGGYCAKGGFVCRCY [M13K + K38R],4
3,GFGCNGPWDEDDKQCHNHCKSIKGYRGGYCAKGGFVCKCY [M13K + K26R],4
4,GFGCNGPWDEDDMQCHYHCKSIKGYKGGYCAKGGFVCKCY [Mutation N17Y],3
5,GFGCNGPWDEDDMRCHNHCKSIKGYKGGYCAKGGFVCKCY [Mutation Q14R],4
